From BindingDB's records for doi:10.1016/s1074-5521(98)90086-2 (Duke University, 1998) come the findings set out here.

The assay concerns the target 1-aminocyclopropane-1-carboxylate oxidase 1 (Malus domestica, UniProt Q00985). The assay can be described thus: Inhibition Assay. The text has this:
Enzyme inhibition assay using ethylene-forming enzyme (EFE).

Chain of 1-aminocyclopropane-1-carboxylate oxidase 1 (Q00985 whole entry): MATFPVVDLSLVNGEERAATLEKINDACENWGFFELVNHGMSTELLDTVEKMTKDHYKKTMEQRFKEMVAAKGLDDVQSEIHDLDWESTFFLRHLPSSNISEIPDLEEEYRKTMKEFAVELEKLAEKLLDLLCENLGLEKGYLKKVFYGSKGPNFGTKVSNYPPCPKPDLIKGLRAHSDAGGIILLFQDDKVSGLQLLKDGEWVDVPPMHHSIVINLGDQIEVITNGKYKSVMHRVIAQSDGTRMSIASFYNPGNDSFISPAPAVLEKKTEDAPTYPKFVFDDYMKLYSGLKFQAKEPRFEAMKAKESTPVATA

`NC1(C(=O)O)CCC1` [Aminocyclobutanecarboxylic acid (ACBC)]: affinity was put at a Ki of 220 µM. Under `CC(C)(N)C(=O)O` [Aminoisobutyric (AIB)] stands 150 µM.

In turn, `O=C(O)C1(NO)CCC1` [N-Hydroxyaminocyclobutanecarboxylic acid] yielded a Ki of 18 µM. Under `CC(C)(NO)C(=O)O` [N-hydroxy aminoisobutryic acid] stands 13 µM.

As a reminder, the Ki is a measure of affinity in units of concentration, obtained from inhibition or displacement. Low readings indicate tighter binding, high ones weaker binding.
